Data published in US20240374631A1, “A COMPOSITION FOR IMPROVING GUT MICROBIOTA, BEHAVIOURAL PATTERN, ALPHA-SYNUCLEIN LEVELS, SLEEP PATTERN AND/OR SERUM MELATONIN” (GN Corporation Co Ltd, priority 2021, published 2024).

Tested on: gut microbiota
Test: Gut microbiome analysis (16S rRNA sequencing of fecal samples) in STAM model of NASH
Assay type: in vivo, C57BL/6J mice
Conditions: pre (baseline)
From the text: The study is reported in accordance with Animal Research: Reporting of In Vivo Experiments (ARRIVE) guidelines. C57BL/6J mice were obtained from Japan SLC, Inc. (Japan). All animals used in this study were cared for under the following guidelines: Act on Welfare and Management of Animals (Ministry of the Environment, Japan, Act No. 105 of Oct. 1, 1973), standards relating to the care and management of laboratory animals and relief of pain (Notice No. 88 of the Ministry of the Environment, Japan, Apr. 28, 2006) and the guidelines for proper conduct of animal experiments (Science Council of Japan, Jun. 1, 2006). Protocol approvals were obtained from SMC Laboratories, Japan's IACUC (Study reference no: […] Mice were maintained in a specific pathogen-free (SPF) facility under controlled conditions of temperature (23±3° C.), humidity (50±20%), lighting (12-hour artificial light and dark cycles; light from 8:00 to 20:00) and air exchange. The STAM model of NASH was induced as previously described [D10]. Mice were given a single subcutaneous injection of 200 μg streptozotocin (STZ, Sigma-Aldrich, USA) solution 2 days after birth and fed with a high-fat diet (HFD, 57 kcal % fat, Cat #HFD32, CLEA Japan, Inc., Japan) from 4-9 weeks of age. All mice develop liver steatosis and diabetes and at […] mice had established steatohepatitis, histologically. Studygroups: There were five study groups, described below. Eight mice were included in each study group. Eight NASH mice were orally administered vehicle supplemented with AFO-202 Beta Glucan at a dose of 1 mg/kg in a volume of 5 mL/kg once daily from 6 to 9 weeks of age. Eight NASH mice were orally administered vehicle supplemented with Telmisartan at a dose of 10 mg/kg once daily from 6 to 9 weeks of age. Frequency: Fecal samples were collected at the 6 weeks of age (before administration) and 9 weeks of age (before sacrifice). Procedure: At 6 weeks of age, fecal samples were collected from each mouse by clean catch method. […] A sterile petri dish was placed on the bench. Gently massage the abdomen, position the bottom of mouse over a fresh petri dish, and collect 1-2 fecal pellets. At sacrifice, fecal samples were aseptically collected from cecum. The tubes with feces were placed on ice immediately. These tubes were snap frozen in liquid nitrogen and stored at -80° C. for shipping. In this analysis, the 16S rRNA sequence data acquired by the next-generation sequencer from the fecal […] was used to perform community analysis using the QIIME2 program for microbial community analysis. The raw read data in FASTQ format output from the next-generation sequencer was trimmed to remove adapter sequences and low QV regions that may be included in the data. Cutadapt was used to remove adapter sequences from DNA sequencing reads. Trimmomatic was used as read trimming tool for Illumina NGS data. The adapter sequence was trimmed using the adapter trimming program “cutadapt” if the Trimming of the region at the end of the read sequence overlapped the corresponding sequence by at least one base (mismatch tolerance: 20%). When reads containing N were present in at least one of Read1 and Read2, both Read1 and Read2 were removed. Trimming of low QV regions was performed on the read data after processing using the QV trimming program “Trimmomatic” under the following conditions. The window of 20 bases is slid from the 5' side, and the area where the average QV is less than 20 is trimmed. After trimming, only the reads with more than 50 bases remaining in both Read1 and Read2 were taken as output. The microbial community analysis based on 16S rRNA sequence was performed on the sequence data trimmed in the previous section using the microbial community analysis program “QIIME2”. The annotation program “sklearn” included in QIIME2 is used to annotate the ASV (OTU) sequences. […]

## CCCc1nc2c(C)cc(-c3nc4ccccc4n3C)cc2n1Cc1ccc(-c2ccccc2C(=O)O)cc1 [Telmisartan]
Line r193
  Abundance: Ruminococcaceae, Oscillospira, —: 57
Line r194
  Abundance: Lactobacillaceae, Lactobaccilus, reuteri: 0
Line r195
  Abundance: Coriobacteriaceae, Adlercreutzia, —: 58
Line r196
  Abundance: Lachnospiraceae, —, —: 0
Line r197
  Abundance: S24-7, —, —: 64
Line r198
  Abundance: Turicibacteraceae, Turicibacter, —: 0
Line r199
  Abundance: S24-7, —, —: 45
Line r200
  Abundance: Rikenellaceae, —, —: 25
Line r201
  Abundance: Enterobacteriaceae, Other, Other: 0
Line r202
  Abundance: Rikenellaceae, Other, Other: 47
Line r204
  Abundance: Lactobacillaceae, Lactobaccilus, Other: 0
Line r205
  Abundance: —, —, —: 60
Line r206
  Abundance: S24-7, —, —: 27
Line r207
  Abundance: S24-7, —, —: 35
Line r208
  Abundance: —, —, —: 85
Line r209
  Abundance: Enterobacteriaceae, Klebsiella, Other: 0
Line r210
  Abundance: —, —, —: 63
Line r211
  Abundance: Lachnospiraceae, Other, Other: 48
Line r212
  Abundance: Ruminococcaceae, Oscillospira, —: 0
Line r213
  Abundance: Ruminococcaceae, Oscillospira, —: 71
Line r214
  Abundance: Bacteroidaceae, Bacteroides, acidifaciens: 27
Line r215
  Abundance: Erysipelotrichaceae, —, —: 51
Line r216
  Abundance: Lachnospiraceae, Dorea, —: 98
Line r217
  Abundance: Enterobacteriaceae, Enterobacter, Other: 0
Line r218
  Abundance: Ruminococcaceae, Oscillospira, —: 42
Line r219
  Abundance: Ruminococcaceae, Other, Other: 61
Line r220
  Abundance: Ruminococcaceae, Oscillospira, —: 0
Line r221
  Abundance: Rikenellaceae, —, —: 31
Line r223
  Abundance: Lachnospiraceae, Other, Other: 98
Line r224
  Abundance: Other, Other, Other: 18
Line r225
  Abundance: Ruminococcaceae, Oscillospira, —: 79
Line r226
  Abundance: S24-7, —, —: 38
Line r227
  Abundance: Lachnospiraceae, —, —: 3
Line r228
  Abundance: Streptococcaceae, Staphylococcus, —: 0
Line r229
  Abundance: —, —, —: 96
Line r230
  Abundance: —, —, —: 87
Line r231
  Abundance: —, —, —: 0
Line r232
  Abundance: Other, Other, Other: 10
Line r233
  Abundance: Aerococcaceae, Aerococcus, —: 0
Line r234
  Abundance: Ruminococcaceae, —, —: 0
Line r235
  Abundance: —, —, —: 61
Line r236
  Abundance: Streptococcaceae, Staphylococcus, —: 0
Line r237
  Abundance: Ruminococcaceae, Oscillospira, —: 0
Line r238
  Abundance: —, —, —: 0
Line r239
  Abundance: Ruminococcaceae, Ruminococcus, —: 0
Line r240
  Abundance: —, —, —: 6
Line r241
  Abundance: Other, Other, Other: 0
Line r242
  Abundance: Ruminococcaceae, Oscillospira, —: 30
Line r243
  Abundance: Lachnospiraceae, [Ruminococcus], gnavus: 27
Line r244
  Abundance: Lachnospiraceae, —, —: 0
Line r245
  Abundance: Other, Other, Other: 0
Line r246
  Abundance: Ruminococcaceae, Oscillospira, —: 37
Line r247
  Abundance: —, —, —: 69
Line r248
  Abundance: Other, Other, Other: 0
Line r249
  Abundance: Other, Other, Other: 0
Line r250
  Abundance: Other, Other, Other: 68
Line r251
  Abundance: Lachnospiraceae, Clostridium, Other: 0
Line r252
  Abundance: Lachnospiraceae, —, —: 0
Line r253
  Abundance: Other, Other, Other: 13
Line r254
  Abundance: Other, Other, Other: 23
Line r255
  Abundance: Ruminococcaceae, Oscillospira, —: 25
Line r256
  Abundance: Desulfovibrionaceae, —, —: 23
Line r257
  Abundance: Dehalobacteriaceae, Dehalobacterium, —: 24
Line r259
  Abundance: Ruminococcaceae, Ruminococcus, —: 44
Line r260
  Abundance: Lachnospiraceae, Coprococcus, —: 23
Line r261
  Abundance: Ruminococcaceae, Oscillospira, —: 0
Line r262
  Abundance: Other, Other, Other: 0
Line r263
  Abundance: Lachnospiraceae, Coprococcus, —: 34
Line r264
  Abundance: Ruminococcaceae, Oscillospira, —: 87
Line r265
  Abundance: Christensenellaceae, —, —: 37
Line r266
  Abundance: S24-7, —, —: 44
Line r267
  Abundance: Ruminococcaceae, Oscillospira, —: 95
Line r268
  Abundance: Lachnospiraceae, Coprococcus, —: 11
Line r269
  Abundance: Lachnospiraceae, Other, Other: 0
Line r271
  Abundance: Erysipelotrichaceae, Clostridium, cocleatum: 16
Line r272
  Abundance: —, —, —: 92
Line r273
  Abundance: Desulfovibrionaceae, Bilophila, —: 11
Line r274
  Abundance: —, —, —: 107
Line r275
  Abundance: Corynebacteriaceae, Corynebacterium, stationis: 0
Line r276
  Abundance: Lachnospiraceae, Other, Other: 0
Line r277
  Abundance: Lachnospiraceae, Other, Other: 0
Line r278
  Abundance: Lachnospiraceae, —, —: 14
Line r279
  Abundance: Lachnospiraceae, —, —: 31
Line r280
  Abundance: —, —, —: 108
Line r281
  Abundance: —, —, —: 0
Line r282
  Abundance: —, —, —: 0
Line r283
  Abundance: Ruminococcaceae, —, —: 27
Line r284
  Abundance: —, —, —: 96
Line r285
  Abundance: Lachnospiraceae, —, —: 90
Line r286
  Abundance: Dehalobacteriaceae, Dehalobacterium, —: 3
Line r287
  Abundance: Other, Other, Other: 0
Line r288
  Abundance: Streptococcaceae, Streptococcus, luteciae: 12
Line r289
  Abundance: —, —, —: 0
Line r290
  Abundance: S24-7, —, —: 0
Line r292
  Abundance: Ruminococcaceae, Ruminococcus, —: 10
Line r293
  Abundance: Lachnospiraceae, Clostridium, Other: 26
Line r294
  Abundance: —, —, —: 10
Line r295
  Abundance: Ruminococcaceae, Oscillospira, —: 11
Line r296
  Abundance: Lachnospiraceae, Coprococcus, —: 20
Line r297
  Abundance: —, —, —: 12
Line r298
  Abundance: S24-7, —, —: 0
Line r300
  Abundance: Lachnospiraceae, —, —: 0
Line r301
  Abundance: Ruminococcaceae, Oscillospira, —: 54
